Reference: patent US20070043111A1, “Use of ifenprodril in the treatment of pain” (priority 2003, published 2007)

Legend:
[1] = test system: intraplantar carrageenan-induced paw withdrawal latency; assay: intraplantar carrageenan-induced paw withdrawal latency in the rat; type: in vivo
Experimental: More particularly, FIG. 1 is a graph showing the effect of (−) threo-ifenprodil when given intranasally or intraperitoneally at 10 and 30 mg/kg on the % change of pressure-induced paw withdrawal latency on the intraplantar carrageenan administered paw in the rat (250 g).
FIG. 2 is a graph showing the effect of (−) threo-ifenprodil when given intravenously at 0.1 to 3 mg/kg on the % change of pressure-induced paw withdrawal latency on the intraplantar carrageenan administered paw in the rat.

[2] = test system: alpha-1 adrenergic receptor; details: Chenard et al., 1991; cited from earlier work

In the case of `CC(C(O)c1ccc(O)cc1)N1CCC(Cc2ccccc2)CC1` (racemic) [erythro racemate of ifenprodil], the “intranasal route compared with intraperitoneal route” value ([1]; FIG. 1) is reported as “at least equivalent if not superior to the intraperitoneal route”, the “analgesic effect on pressure-induced paw withdrawal latency” value ([1]; intranasal, 2.5 mg/rat and 7.5 mg/rat, FIG. 1) is reported as “markedly analgesic” and the “analgesic effect on pressure-induced paw withdrawal latency” value ([1]; intraperitoneal, 10 mg/kg and 30 mg/kg, FIG. 1) is reported as “markedly analgesic”.

For `CC(C(O)c1ccc(O)cc1)N1CCC(Cc2ccccc2)CC1` (single isomer, unassigned; (-)) [(−) Threo-ifenprodil], the “efficacy on pressure-induced paw withdrawal latency” value ([1]; intravenous, 0.1, 0.3, 1 and 3 mg/kg, FIG. 2) was “excellent efficacy”.

In the case of `CC(C(O)c1ccc(O)cc1)N1CCC(Cc2ccccc2)CC1` (centres unmarked) [Ifenprodil, 2-(4-benzylpiperidino)-1-(4-hydroxyphenyl)-1-propanol], the “alpha-1 adrenergic receptor binding properties” value [2] is listed as “potent”.
